Structures can show the parent of a compound that is named as a salt.
Biological target: SARS-CoV-2 Mac1 (Severe acute respiratory syndrome coronavirus 2, UniProt P0DTD1)
Assay: biochemical
Settings: for inhibition at 100 µM: read-out: %inhibition; for %inhibition: 100 µM, inhibitor

Row | SMILES | inhibition at 100 µM [%] | %inhibition [%]
1 | O=C(O)COCCN1CCN(C(c2ccccc2)c2ccc(Cl)cc2)CC1 (stereo not drawn) [Cetirizine DiHCl] | 1.2 | –
2 | CN(C)C(=N)NC(=N)N [Metformin HCl] | 32.6 | –
3 | O=C(O)/C=C/c1ccc(Cn2ccnc2)cc1 [Ozagrel HCl] | – | 0
4 | CCCCC[C@](C)(O)/C=C/[C@@H]1[C@@H](C/C=C\CCCC(=O)O)[C@@H](O)C[C@H]1O [Carboprost] | 17.6 | –
5 | C=C(c1ccc(C(=O)O)cc1)c1cc2c(cc1C)C(C)(C)CCC2(C)C [Bexarotene] | 0 | –
6 | N[C@@H](CCC(=O)N[C@@H](CS)C(=O)NCC(=O)O)C(=O)O [Glutathione] | 0 | –
7 | C[C@]12CC[C@@H]3c4ccc(O)cc4CC[C@H]3[C@@H]1CC[C@@H]2O [Estradiol] | 0 | –
8 | N#Cc1ccnc(N2C(=O)CC[C@H]2C(=O)N(c2cncc(F)c2)[C@H](C(=O)NC2CC(F)(F)C2)c2ccccc2Cl)c1 [Ivosidenib (AG-120)] | 9.59 | –
9 | Cc1cccc(Cc2c[nH]cn2)c1C [Detomidine HCl] | 0 | –
10 | CN(C)c1cc(NC(=O)CNC(C)(C)C)c(O)c2c1C[C@H]1C[C@H]3[C@H](N(C)C)C(O)=C(C(N)=O)C(=O)[C@@]3(O)C(O)=C1C2=O [Tigecycline] | 0 | –
11 | O=C(C[S+]([O-])Cc1ccco1)NC/C=C\COc1cc(CN2CCCCC2)ccn1 (stereo not drawn) [Lafutidine] | 0 | –
12 | Cc1c(OCC(F)(F)F)ccnc1C[S+]([O-])c1nc2ccccc2[nH]1 (stereo not drawn) [Lansoprazole] | 4.45 | –
13 | CCOC(=O)c1ccc(O)cc1 [Ethylparaben] | 2.11 | –
14 | Cc1ncc(CNC(=O)N(CCCl)N=O)c(N)n1 [Nimustine Hydrochloride] | 0 | –
15 | c1cc(CN2CCCNCCNCCCNCC2)ccc1CN1CCCNCCNCCCNCC1 [Plerixafor (AMD3100)] | 8.18 | –
16 | Cc1ccc(Nc2nccc(N(C)c3ccc4c(C)n(C)nc4c3)n2)cc1S(N)(=O)=O [Pazopanib HCl (GW786034 HCl)] | – | 31.56
17 | Cn1c(=O)c2c(ncn2CC(O)CO)n(C)c1=O (stereo not drawn) [Dyphylline] | 0.0817 | –
18 | C[C@]12CC[C@H](O)CC1=CC[C@@H]1[C@@H]2CC[C@]2(C)C(n3cnc4ccccc43)=CC[C@@H]12 [Galeterone] | 31.2 | –
19 | CCCCOC(=O)c1ccc(N)cc1 [Butamben] | 2.1 | –
20 | Cc1ccc(-n2nc(C(C)(C)C)cc2NC(=O)NCc2cc(F)ccc2Oc2ccc3c(cnn3CCO)c2)cc1 [Pexmetinib (ARRY-614)] | 0.769 | –
21 | Cc1[nH]c(/C=C2\C(=O)Nc3ccccc32)c(C)c1CCC(=O)O [Orantinib (TSU-68, SU6668)] | 16.7 | –
22 | O=C1CCCC(=O)C1C(=O)c1ccc(C(F)(F)F)cc1[N+](=O)[O-] [Nitisinone] | 2.19 | –
23 | COc1ccc2c(c1)c(CC(=O)O)c(C)n2C(=O)c1ccc(Cl)cc1 [Indometacin Sodium] | – | 0
24 | COC(=O)[C@H](c1ccccc1Cl)N1CCc2sccc2C1 [Clopidogrel] | 0 | –
25 | CCc1c(C)[nH]c2c1C(=O)C(CN1CCOCC1)CC2 (stereo not drawn) [Molindone hydrochloride] | 0 | –
26 | c1ccc2c(CC3=NCCN3)cccc2c1 [Naphazoline HCl] | 8.42 | –
27 | Cc1cc(O)c(C(=O)N[C@@H](C(=O)N[C@@H]2C(=O)N3C(C(=O)O)=C(CSc4nnnn4C)CS[C@H]23)c2ccc(O)cc2)cn1 [Cefpiramide sodium] | 0 | –
28 | C[C@@H]1C[C@H]2[C@@H]3C[C@H](F)C4=CC(=O)C=C[C@]4(C)[C@@]3(F)[C@@H](O)C[C@]2(C)[C@@]1(O)C(=O)CO [Flumethasone] | 28.1 | –
29 | COCCCOc1cc(C[C@@H](C[C@H](N)[C@@H](O)C[C@H](C(=O)NCC(C)(C)C(N)=O)C(C)C)C(C)C)ccc1OC [Aliskiren Hemifumarate] | 0 | –
30 | Cc1ccc([C@@H]2O[C@H](CO)[C@@H](O)[C@H](O)[C@H]2O)cc1Cc1ccc(-c2ccc(F)cc2)s1 [Canagliflozin] | 0 | –

Reference: article doi:[…]/2021.10.07.463234v2 (biorxiv, 2021)
